Results: US8362012B2, “Benzoxazine benzimidazole derivative, a pharmaceutical composition comprising the same, and a use thereof” (Daewoong Pharmaceutical Co., Ltd., priority 2008, dated 2013)

Key:
[1] = molecular target: T1, human vanilloid-1 (hVR-1) in hVR-1-HEK293 cell line (Homo sapiens, UniProt Q8NER1); assay: Inhibitory effect on calcium influx via a vanilloid receptor (capsaicin-stimulated, Fluo-3/AM); format: cell-based; conditions: hVR-1-HEK293 cells, 1 μM of capsaicin, compounds 0.015˜2000 nM; read-out: I.A. (inhibitory activity), IC50 on intracellular calcium influx
T1 construct: expressed in transfected cells; host or cells: HEK293 Tet-on strain, doxycycline-induced
T1 sequence (Q8NER1 whole entry): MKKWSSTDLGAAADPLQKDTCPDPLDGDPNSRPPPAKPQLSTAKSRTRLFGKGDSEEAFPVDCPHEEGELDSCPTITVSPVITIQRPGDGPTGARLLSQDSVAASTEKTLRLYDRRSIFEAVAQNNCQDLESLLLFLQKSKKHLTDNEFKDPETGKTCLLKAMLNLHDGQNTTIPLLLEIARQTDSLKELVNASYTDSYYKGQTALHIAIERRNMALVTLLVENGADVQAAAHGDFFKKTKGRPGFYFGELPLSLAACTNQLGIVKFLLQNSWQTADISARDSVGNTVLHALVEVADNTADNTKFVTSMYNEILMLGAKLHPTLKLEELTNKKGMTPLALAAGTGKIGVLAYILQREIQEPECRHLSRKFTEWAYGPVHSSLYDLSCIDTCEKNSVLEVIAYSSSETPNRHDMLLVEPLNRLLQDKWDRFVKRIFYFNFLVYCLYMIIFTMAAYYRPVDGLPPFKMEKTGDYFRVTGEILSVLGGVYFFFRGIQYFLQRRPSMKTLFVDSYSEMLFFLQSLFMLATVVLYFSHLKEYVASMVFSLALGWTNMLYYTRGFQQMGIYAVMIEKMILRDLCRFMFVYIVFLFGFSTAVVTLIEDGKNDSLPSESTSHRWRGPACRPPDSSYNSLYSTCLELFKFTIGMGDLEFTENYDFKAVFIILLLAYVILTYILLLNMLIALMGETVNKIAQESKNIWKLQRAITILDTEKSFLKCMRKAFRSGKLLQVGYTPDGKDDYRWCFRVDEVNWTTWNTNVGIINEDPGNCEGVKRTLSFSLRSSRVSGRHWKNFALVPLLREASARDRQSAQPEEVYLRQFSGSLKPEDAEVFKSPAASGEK
Procedure, shortened: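 Doxycycline-induced (1 μg/mL, 2 days) hVR-1-HEK293 cells loaded with Fluo-3/AM for 90 min at 37° C, then stimulated with 1 μM capsaicin. Calcium influx expressed as background-corrected fluorescence relative to positive control, analysed by Hill equation and graded by activity criteria.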

ICR male mice = assay: Phenyl-p-quinone (PBQ)-induced writhing experiment using mice; format: in vivo; conditions: orally administered, PBQ (0.02%) intraperitoneally after 1 hour, writhing counted for 10 min
Description: In order to evaluate the effect on pain of the compounds prepared in the Examples, behaviors such as twisting or writhing of body resulted from pain were verified by the phenyl-p-quinone (PBQ)-induced writhing experiment using mice. 5 week-old ICR male mice were used as experimental animals and PBQ (0.02%), as a chemical stimulator. The suspensions of 20 mg of the compounds of the present invention and an excipient such as Na—CMC (sodium carboxymethyl cellulose) in 10 mL of saline were used as test compounds. The test compounds were orally administered to the mice and after 1 hour, PBQ was intraperitoneally administrated in an amount of 10 mL per kg of body weight. Also, as a control group, equivalent amounts of BCTC were administered. The writhing number of each mouse was measured for 10 min starting from 5 min after the administration, and the analgesic effect was verified by counting the reduced number compared to the control group administered with only excipient and calculating the % inhibitory rate according to the following Formula 2. % inhibition rate=(writhing # of control group−writhing # of test group)/writhing # of control group×100 [Formula 2]

Row | SMILES | IC50 [1] | I.A. (inhibitory activity), % inhibition rate of writhing (ICR male mice)
1 | C=Cc1ccc(N2c3cccc(-c4nc5cc(F)c(F)cc5[nH]4)c3OC[C@@H]2CO)nc1 [Example 69, [(S)-8-(5,6-difluoro-1H-benzimidazol-2-yl)-4-(5-vinyl-pyridin-2-yl)-3,4-dihydro-2H-benzo[1,4]oxazin-3-yl]-methanol] | 20 to 100 nM | +++ (51-80%)
2 | CCc1ccc(N2c3cccc(-c4nc5c(Cl)cc(C(F)(F)F)cc5[nH]4)c3OC[C@@H]2CO)nc1 [Example 80, [(S)-8-(4-chloro-6-trifluoromethyl-1H-benzimidazol-2-yl)-4-(5-ethyl-pyridin-2-yl)-3,4-dihydro-2H-benzo[1,4]oxazin-3-yl]-methanol] | < 20 nM | +++ (51-80%)
3 | CCc1ccc(N2c3cccc(-c4nc5c(Br)cc(C(F)(F)F)cc5[nH]4)c3OC[C@@H]2CO)nc1 [Example 81, [(S)-8-(4-bromo-6-trifluoromethyl-1H-benzimidazol-2-yl)-4-(5-ethyl-pyridin-2-yl)-3,4-dihydro-2H-benzo[1,4]oxazin-3-yl]-methanol] | < 20 nM | +++ (51-80%)
4 | CCc1ccc(N2c3cccc(-c4nc5ccc(OC(F)(F)F)cc5[nH]4)c3OC[C@@H]2CO)nc1 [Example 82, [(S)-4-(5-ethyl-pyridin-2-yl)-8-(6-trifluoromethoxy-1H-benzimidazol-2-yl)-3,4-dihydro-2H-benzo[1,4]oxazin-3-yl]-methanol] | 20 to 100 nM | +++ (51-80%)
5 | CCc1ccc(N2c3cccc(-c4nc5c(F)cc(Br)cc5[nH]4)c3OC[C@@H]2CO)nc1 [Example 85, [(S)-8-(6-bromo-4-fluoro-1H-benzimidazol-2-yl)-4-(5-ethyl-pyridin-2-yl)-3,4-dihydro-2H-benzo[1,4]oxazin-3-yl]-methanol] | 20 to 100 nM | +++ (51-80%)

More lines, main results first:

Row | IC50 [1] | SMILES | I.A. (inhibitory activity), % inhibition rate of writhing (ICR male mice)
6 | < 20 nM | Cc1ccc(N2c3cccc(-c4nc5ccccc5[nH]4)c3OC[C@@H]2CO)nc1 [Example 53, [(S)-8-(1H-benzimidazol-2-yl)-4-(5-methyl-pyridin-2-yl)-3,4-dihydro-2H-benzo[1,4]oxazin-3-yl]-methanol] | + (<20%)
7 | < 20 nM | C=Cc1ccc(N2c3cccc(-c4nc5ccc(Cl)cc5[nH]4)c3OC[C@@H]2CO)nc1 [Example 59, [(S)-8-(6-chloro-1H-benzimidazol-2-yl)-4-(5-vinyl-pyridin-2-yl)-3,4-dihydro-2H-benzo[1,4]oxazin-3-yl]-methanol] | +++ (51-80%)
8 | < 20 nM | C=Cc1ccc(N2c3cccc(-c4nc5ccc(Br)cc5[nH]4)c3OC[C@@H]2CO)nc1 [Example 60, [(S)-8-(6-bromo-1H-benzimidazol-2-yl)-4-(5-vinyl-pyridin-2-yl)-3,4-dihydro-2H-benzo[1,4]oxazin-3-yl]-methanol] | +++ (51-80%)
9 | < 20 nM | C=Cc1ccc(N2c3cccc(-c4nc5c(C)cc(Br)cc5[nH]4)c3OC[C@@H]2CO)nc1 [Example 66, [(S)-8-(6-bromo-4-methyl-1H-benzimidazol-2-yl)-4-(5-vinyl-pyridin-2-yl)-3,4-dihydro-2H-benzo[1,4]oxazin-3-yl]-methanol] | +++ (51-80%)
10 | < 20 nM | C=Cc1ccc(N2c3cccc(-c4nc5ccc(OC(F)(F)F)cc5[nH]4)c3OC[C@@H]2CO)nc1 [Example 67, [(S)-8-(6-trifluoromethoxy-1H-benzimidazol-2-yl)-4-(5-vinyl-pyridin-2-yl)-3,4-dihydro-2H-benzo[1,4]oxazin-3-yl]-methanol] | +++ (51-80%)
11 | < 20 nM | C=Cc1ccc(N2c3cccc(-c4nc5cc(Cl)c(Cl)cc5[nH]4)c3OC[C@@H]2CO)nc1 [Example 68, [(S)-8-(5,6-dichloro-1H-benzimidazol-2-yl)-4-(5-vinyl-pyridin-2-yl)-3,4-dihydro-2H-benzo[1,4]oxazin-3-yl]-methanol] | +++ (51-80%)
